Source: ChEMBL document CHEMBL1201862, “PubChem BioAssay data set” (2004)
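Tested at 5 concentrations; 48 h exposure; 96-well plates; endpoints linearly interpolated, else capped at highest concentration. At the GI50, growth is halved.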 Calls of active or inactive are those of the source. Cut-off read from the data, not from the text of the source: active = GI50 up to about 1.1 µM and inactive = higher.

Columns and labels:
Assay in all cases: DTP human tumour cell line panel, 48 h
LXFL 529 = test system: LXFL 529
CAKI-1 = test system: CAKI-1
SK-MEL-2 = test system: SK-MEL-2
SK-MEL-5 = test system: SK-MEL-5
LOX IMVI = test system: LOX IMVI
RXF 631 = test system: RXF 631
HOP-92 = test system: HOP-92
HCT-15 = test system: HCT-15
NCI-H226 = test system: NCI-H226
CCRF-CEM = test system: CCRF-CEM
OVCAR-5 = test system: OVCAR-5
RPMI-8226 = test system: RPMI-8226
SF-539 = test system: SF-539
U-251 = test system: U-251
HCC 2998 = test system: HCC 2998
Malme-3M = test system: Malme-3M
SF-295 = test system: SF-295
SK-OV-3 = test system: SK-OV-3
NCI-H23 = test system: NCI-H23
COLO 205 = test system: COLO 205
DMS-273 = test system: DMS-273
ACHN = test system: ACHN
HL-60 = test system: HL-60
TK-10 = test system: TK-10
SW-620 = test system: SW-620
HCT-116 = test system: HCT-116
DMS-114 = test system: DMS-114
UACC-62 = test system: UACC-62
HT-29 = test system: HT-29
NCI-H522 = test system: NCI-H522
KM-20L2 = test system: KM-20L2
M14 = test system: M14
786-0 = test system: 786-0
SF-268 = test system: SF-268
K562 = test system: K562
OVCAR-3 = test system: OVCAR-3
SN12C = test system: SN12C
UO-31 = test system: UO-31
SNB-75 = test system: SNB-75
SK-MEL-28 = test system: SK-MEL-28
IGROV-1 = test system: IGROV-1
EKVX = test system: EKVX
A549 = test system: A549
OVCAR-4 = test system: OVCAR-4
MOLT-4 = test system: MOLT-4
NCI-H460 = test system: NCI-H460
XF498 = test system: XF498
OVCAR-8 = test system: OVCAR-8
UACC-257 = test system: UACC-257
KM12 = test system: KM12
RXF 393 = test system: RXF 393
DLD-1 = test system: DLD-1
SR = test system: SR
SNB-19 = test system: SNB-19
A498 = test system: A498
M19-MEL = test system: M19-MEL
HOP-18 = test system: HOP-18
HOP-62 = test system: HOP-62
SNB-78 = test system: SNB-78

O=C(O)CNc1c2ccccc2nc2ccccc12
GI50 (LXFL 529): > 100 µM (inactive)
GI50 (CAKI-1): > 100 µM (inactive)
GI50 (SK-MEL-2): > 100 µM (inactive)
GI50 (SK-MEL-5): > 100 µM (inactive)
GI50 (LOX IMVI): > 100 µM (inactive)
GI50 (RXF 631): > 100 µM (inactive)
GI50 (HOP-92): > 100 µM (inactive)
GI50 (HCT-15): > 100 µM
GI50 (NCI-H226): > 100 µM (inactive)
GI50 (CCRF-CEM): > 100 µM (inactive)
GI50 (OVCAR-5): > 100 µM (inactive)
GI50 (RPMI-8226): 56.8 µM (inactive)
GI50 (SF-539): > 100 µM (inactive)
GI50 (U-251): > 100 µM (inactive)
GI50 (HCC 2998): > 100 µM (inactive)
GI50 (Malme-3M): > 100 µM (inactive)
GI50 (SF-295): > 100 µM (inactive)
GI50 (SK-OV-3): > 100 µM (inactive)
GI50 (NCI-H23): > 100 µM (inactive)
GI50 (COLO 205): > 100 µM (inactive)
GI50 (DMS-273): > 100 µM (inactive)
GI50 (ACHN): > 100 µM (inactive)
GI50 (HL-60): 48.2 µM (inactive)
GI50 (TK-10): > 100 µM (inactive)
GI50 (SW-620): > 100 µM (inactive)
GI50 (HCT-116): 78.3 µM (inactive)
GI50 (DMS-114): 60.4 µM (inactive)
GI50 (UACC-62): > 100 µM (inactive)
GI50 (HT-29): > 100 µM (inactive)
GI50 (NCI-H522): 49.8 µM (inactive)
GI50 (KM-20L2): > 100 µM (inactive)
GI50 (M14): > 100 µM (inactive)
GI50 (786-0): > 100 µM (inactive)
GI50 (SF-268): > 100 µM (inactive)
GI50 (K562): > 100 µM (inactive)
GI50 (OVCAR-3): 80.4 µM (inactive)
GI50 (SN12C): > 100 µM (inactive)
GI50 (UO-31): 50.6 µM (inactive)
GI50 (SNB-75): > 100 µM (inactive)
GI50 (SK-MEL-28): > 100 µM (inactive)
GI50 (IGROV-1): > 100 µM (inactive)
GI50 (EKVX): > 100 µM (inactive)
GI50 (A549): > 100 µM (inactive)
GI50 (OVCAR-4): 22.1 µM (inactive)
GI50 (MOLT-4): > 100 µM (inactive)
GI50 (NCI-H460): > 100 µM (inactive)
GI50 (XF498): > 100 µM (inactive)
GI50 (OVCAR-8): > 100 µM (inactive)
GI50 (UACC-257): > 100 µM (inactive)
GI50 (KM12): > 100 µM (inactive)
GI50 (RXF 393): > 100 µM (inactive)
GI50 (DLD-1): > 100 µM (inactive)
GI50 (SR): > 100 µM (inactive)
GI50 (SNB-19): > 100 µM (inactive)

NC(=O)C(=O)N/N=C1\C(=O)N(c2ccc(Cl)cc2Cl)C(=O)C1C(=O)Nc1ccc(Cl)cc1Cl (stereo unspecified)
GI50 (A498): > 100 µM (inactive)
GI50 (LXFL 529): > 100 µM (inactive)
GI50 (CAKI-1): > 100 µM (inactive)
GI50 (SK-MEL-2): > 100 µM (inactive)
GI50 (SK-MEL-5): > 100 µM (inactive)
GI50 (LOX IMVI): > 100 µM (inactive)
GI50 (HOP-92): > 100 µM (inactive)
GI50 (M19-MEL): > 100 µM (inactive)
GI50 (HCT-15): > 100 µM
GI50 (NCI-H226): > 100 µM (inactive)
GI50 (CCRF-CEM): > 100 µM (inactive)
GI50 (OVCAR-5): > 100 µM (inactive)
GI50 (RPMI-8226): > 100 µM (inactive)
GI50 (HOP-18): 76.9 µM (inactive)
GI50 (SF-539): > 100 µM (inactive)
GI50 (HOP-62): > 100 µM (inactive)
GI50 (U-251): > 100 µM (inactive)
GI50 (HCC 2998): > 100 µM (inactive)
GI50 (Malme-3M): > 100 µM (inactive)
GI50 (SF-295): > 100 µM (inactive)
GI50 (SK-OV-3): > 100 µM (inactive)
GI50 (NCI-H23): > 100 µM (inactive)
GI50 (COLO 205): > 100 µM (inactive)
GI50 (DMS-273): > 100 µM (inactive)
GI50 (ACHN): > 100 µM (inactive)
GI50 (HL-60): > 100 µM (inactive)
GI50 (TK-10): > 100 µM (inactive)
GI50 (SW-620): > 100 µM (inactive)
GI50 (HCT-116): > 100 µM (inactive)
GI50 (DMS-114): > 100 µM (inactive)
GI50 (UACC-62): > 100 µM (inactive)
GI50 (HT-29): > 100 µM (inactive)
GI50 (NCI-H522): > 100 µM (inactive)
GI50 (KM-20L2): > 100 µM (inactive)
GI50 (M14): > 100 µM (inactive)
GI50 (SNB-78): > 100 µM (inactive)
GI50 (786-0): > 100 µM (inactive)
GI50 (SF-268): > 100 µM (inactive)
GI50 (K562): > 100 µM (inactive)
GI50 (OVCAR-3): > 100 µM (inactive)
GI50 (SN12C): > 100 µM (inactive)
GI50 (UO-31): > 100 µM (inactive)
GI50 (SNB-75): 28.8 µM (inactive)
GI50 (SK-MEL-28): > 100 µM (inactive)
GI50 (IGROV-1): > 100 µM (inactive)
GI50 (EKVX): > 100 µM (inactive)
GI50 (A549): > 100 µM (inactive)
GI50 (MOLT-4): > 100 µM (inactive)
GI50 (NCI-H460): > 100 µM (inactive)
GI50 (XF498): > 100 µM (inactive)
GI50 (OVCAR-8): > 100 µM (inactive)
GI50 (UACC-257): > 100 µM (inactive)
GI50 (KM12): > 100 µM (inactive)
GI50 (RXF 393): > 100 µM (inactive)
GI50 (DLD-1): > 100 µM (inactive)
GI50 (SR): > 100 µM (inactive)
GI50 (SNB-19): > 100 µM (inactive)
